Laboratory results from the supplement of paper PMC3937590.

Key:
Assay in all cases: -log10 GI50 (growth inhibition 50%) (-log10(M)); higher = more potent growth inhibition
[1] = system: HCC1428
Method in brief: (§1)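 The reported figure is the negative logarithm of GI50, defined as the molar concentration that produces the set level of growth inhibition. The logarithm is base 10. It comes from a Gompertz curve fitted by nonlinear least squares to 72-hour luminescence data from breast cancer cell lines given nine doses in 1:5 serial dilution, in triplicate, with a time-zero plate as reference. A < qualifier marks values equal to the top dose.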

[2] = system: SKBR3
Method in brief: as §1

[3] = system: SUM52PE
Method in brief: as §1

[4] = system: BT20
Method in brief: as §1

[5] = system: 184B5
Method in brief: as §1

[6] = system: MCF10A
Method in brief: as §1

[7] = system: BT474
Method in brief: as §1

[8] = system: MDAMB415
Method in brief: as §1

[9] = system: SUM229PE
Method in brief: as §1

[10] = system: MDAMB175VII
Method in brief: as §1

[11] = system: MDAMB361
Method in brief: as §1

[12] = system: HCC1187
Method in brief: as §1

[13] = system: HCC1395
Method in brief: as §1

[14] = system: HCC1954
Method in brief: as §1

[15] = system: CAMA1
Method in brief: as §1

[16] = system: LY2
Method in brief: as §1

[17] = system: HCC1569
Method in brief: as §1

[18] = system: HCC3153
Method in brief: as §1

[19] = system: BT483
Method in brief: as §1

[20] = system: MCF10F
Method in brief: as §1

[21] = system: SUM1315MO2
Method in brief: as §1

[22] = system: MCF7
Method in brief: as §1

[23] = system: MDAMB157
Method in brief: as §1

[24] = system: SUM159PT
Method in brief: as §1

[25] = system: HCC38
Method in brief: as §1

[26] = system: HS578T
Method in brief: as §1

[27] = system: HCC1143
Method in brief: as §1

[28] = system: HCC1937
Method in brief: as §1

[29] = system: 600MPE
Method in brief: as §1

[30] = system: SUM149PT
Method in brief: as §1

[31] = system: MDAMB453
Method in brief: as §1

[32] = system: UACC812
Method in brief: as §1

[33] = system: MDAMB134VI
Method in brief: as §1

[34] = system: HCC1419
Method in brief: as §1

[35] = system: MDAMB231
Method in brief: as §1

[36] = system: ZR751
Method in brief: as §1

[37] = system: MX1
Method in brief: as §1

[38] = system: 184A1
Method in brief: as §1

[39] = system: ZR75B
Method in brief: as §1

[40] = system: MCF12A
Method in brief: as §1

[41] = system: HCC1806
Method in brief: as §1

[42] = system: T47D_KBluc
Method in brief: as §1

[43] = system: HCC2185
Method in brief: as §1

[44] = system: AU565
Method in brief: as §1

[45] = system: BT549
Method in brief: as §1

[46] = system: HCC70
Method in brief: as §1

[47] = system: SUM225CWN
Method in brief: as §1

[48] = system: T47D
Method in brief: as §1

[49] = system: SUM185PE
Method in brief: as §1

## O=c1[nH]c(=O)n([C@H]2C[C@H](O)[C@@H](CO)O2)cc1F [Floxuridine]
[1]
  -log10 GI50: 4.04
[2]
  -log10 GI50: 3.66
[3]
  -log10 GI50: 3.45
[4]
  -log10 GI50: 3.49
[5]
  -log10 GI50: 3.65
[6]
  -log10 GI50: 4.86
[7]
  -log10 GI50: 3.37
[8]
  -log10 GI50: 4.5
[9]
  -log10 GI50: 4.16
[10]
  -log10 GI50: 4.69
[11]
  -log10 GI50: 3.4
[12]
  -log10 GI50: 3.81
[13]
  -log10 GI50: 3.51
[14]
  -log10 GI50: 3.99
[15]
  -log10 GI50: 4.36
[16]
  -log10 GI50: 5.63
[17]
  -log10 GI50: 3.38
[18]
  -log10 GI50: 3.11
[19]
  -log10 GI50: 4.15
[20]
  -log10 GI50: 4.34
[21]
  -log10 GI50: 3.18
[22]
  -log10 GI50: 3.77
[23]
  -log10 GI50: 3.87
[24]
  -log10 GI50: 4.49
[25]
  -log10 GI50: 3.79
[26]
  -log10 GI50: 3.52
[27]
  -log10 GI50: 4.08
[28]
  -log10 GI50: 3.37
[29]
  -log10 GI50: 5.81
[30]
  -log10 GI50: 4.12
[31]
  -log10 GI50: 5.79
[32]
  -log10 GI50: 4.11
[33]
  -log10 GI50: 3.2
[34]
  -log10 GI50: 2.73
[35]
  -log10 GI50: 3.32
[36]
  -log10 GI50: 5.55
[37]
  -log10 GI50: 2.84
[38]
  -log10 GI50: 3.67
[39]
  -log10 GI50: 5.16
[40]
  -log10 GI50: 4.86
[41]
  -log10 GI50: 4.02
[42]
  -log10 GI50: 2.8
[43]
  -log10 GI50: 3.2
[44]
  -log10 GI50: 4.97
[45]
  -log10 GI50: 3.57
[46]
  -log10 GI50: 3.67
[47]
  -log10 GI50: 3.53
[48]
  -log10 GI50: 3.48

## CC(C(C)N1CC(=O)NC(=O)C1)N1CC(=O)NC(=O)C1 (stereo not drawn) [ICRF-193]
[1]
  -log10 GI50: < 4.3
[2]
  -log10 GI50: 5.22
[3]
  -log10 GI50: 5.6
[4]
  -log10 GI50: < 4.3
[5]
  -log10 GI50: < 4.48
[6]
  -log10 GI50: 7.07
[7]
  -log10 GI50: < 4.3
[8]
  -log10 GI50: 5.39
[49]
  -log10 GI50: < 4.3
[9]
  -log10 GI50: 6.14
[10]
  -log10 GI50: < 4.3
[11]
  -log10 GI50: 4.39
[12]
  -log10 GI50: 6.1
[13]
  -log10 GI50: 4.69
[14]
  -log10 GI50: 4.82
[15]
  -log10 GI50: < 4.3
[16]
  -log10 GI50: 5.97
[17]
  -log10 GI50: < 4.3
[18]
  -log10 GI50: < 4.48
[19]
  -log10 GI50: < 4.3
[20]
  -log10 GI50: < 4.3
[21]
  -log10 GI50: 6.35
[22]
  -log10 GI50: < 4.48
[23]
  -log10 GI50: 5.16
[24]
  -log10 GI50: 6.53
[25]
  -log10 GI50: 6.53
[26]
  -log10 GI50: 5.63
[27]
  -log10 GI50: < 4.3
[28]
  -log10 GI50: < 4.3
[29]
  -log10 GI50: < 4.3
[30]
  -log10 GI50: 5.59
[31]
  -log10 GI50: 4.88
[32]
  -log10 GI50: < 4.48
[33]
  -log10 GI50: 4.32
[34]
  -log10 GI50: < 4.3
[36]
  -log10 GI50: 6.07
[37]
  -log10 GI50: 5.95
[38]
  -log10 GI50: < 4.3
[39]
  -log10 GI50: 6.6
[40]
  -log10 GI50: 6.71
[41]
  -log10 GI50: < 4.3
[42]
  -log10 GI50: < 4.48
[43]
  -log10 GI50: 5.71
[44]
  -log10 GI50: 6.14
[45]
  -log10 GI50: < 4.3
[46]
  -log10 GI50: < 4.3
[47]
  -log10 GI50: < 4.48
[48]
  -log10 GI50: < 4.48

## CC[C@H](CO)Nc1nc(NCc2ccccc2O)c2ncn(C(C)C)c2n1 [Olomoucine II]
[1]
  -log10 GI50: 5.29
[2]
  -log10 GI50: 4.96
[3]
  -log10 GI50: 5.19
[4]
  -log10 GI50: 5.43
[5]
  -log10 GI50: 5.53
[6]
  -log10 GI50: 5.51
[7]
  -log10 GI50: 5.2
[8]
  -log10 GI50: 5.32
[49]
  -log10 GI50: 5.98
[9]
  -log10 GI50: 5.13
[10]
  -log10 GI50: 5.14
[11]
  -log10 GI50: 5.01
[12]
  -log10 GI50: 5.18
[13]
  -log10 GI50: 5.72
[14]
  -log10 GI50: 4.95
[15]
  -log10 GI50: 5.3
[16]
  -log10 GI50: 5.46
[17]
  -log10 GI50: 5.28
[18]
  -log10 GI50: 5.51
[19]
  -log10 GI50: 5.24
[20]
  -log10 GI50: 5.03
[21]
  -log10 GI50: 5.47
[22]
  -log10 GI50: 5.23
[23]
  -log10 GI50: 5.23
[24]
  -log10 GI50: 5.32
[25]
  -log10 GI50: 5.53
[26]
  -log10 GI50: 5.18
[27]
  -log10 GI50: 5.51
[28]
  -log10 GI50: 5.2
[29]
  -log10 GI50: 5.23
[30]
  -log10 GI50: 5.18
[31]
  -log10 GI50: 5.31
[32]
  -log10 GI50: 5.19
[33]
  -log10 GI50: 5.23
[34]
  -log10 GI50: 5.36
[35]
  -log10 GI50: 5.17
[36]
  -log10 GI50: 5.21
[37]
  -log10 GI50: 5.24
[38]
  -log10 GI50: 5.5
[39]
  -log10 GI50: 5.23
[40]
  -log10 GI50: 5.22
[41]
  -log10 GI50: 5.06
[43]
  -log10 GI50: 5.11
[44]
  -log10 GI50: 5.33
[45]
  -log10 GI50: 5.66
[46]
  -log10 GI50: 5.47
[47]
  -log10 GI50: 5.28
[48]
  -log10 GI50: 5.18

## CO[C@H]1C[C@@H]2CC[C@@H](C)[C@@](O)(O2)C(=O)C(=O)N2CCCC[C@H]2C(=O)O[C@H]([C@H](C)C[C@@H]2CC[C@@H](OC(=O)C(C)(CO)CO)[C@H](OC)C2)CC(=O)[C@H](C)/C=C(\C)[C@@H](O)[C@@H](OC)C(=O)[C@H](C)C[C@H](C)/C=C/C=C/C=C/1C [Temsirolimus]
[1]
  -log10 GI50: 5.25
[2]
  -log10 GI50: 7.27
[3]
  -log10 GI50: 8.82
[4]
  -log10 GI50: 6.18
[5]
  -log10 GI50: 5.29
[6]
  -log10 GI50: 6.38
[7]
  -log10 GI50: 7.57
[8]
  -log10 GI50: 8.36
[49]
  -log10 GI50: < 3.88
[9]
  -log10 GI50: 4.87
[10]
  -log10 GI50: 4.66
[11]
  -log10 GI50: 6.56
[12]
  -log10 GI50: 6.1
[13]
  -log10 GI50: 4.83
[14]
  -log10 GI50: 6.66
[16]
  -log10 GI50: 6.85
[17]
  -log10 GI50: 5.49
[18]
  -log10 GI50: 4.63
[19]
  -log10 GI50: 6.57
[20]
  -log10 GI50: 6.11
[21]
  -log10 GI50: 6.06
[22]
  -log10 GI50: 5.8
[23]
  -log10 GI50: 4.63
[25]
  -log10 GI50: 4.91
[26]
  -log10 GI50: 4.66
[27]
  -log10 GI50: 5.8
[28]
  -log10 GI50: 6.36
[29]
  -log10 GI50: 4.74
[30]
  -log10 GI50: 5.21
[32]
  -log10 GI50: 6.21
[33]
  -log10 GI50: 6.89
[34]
  -log10 GI50: 7.27
[36]
  -log10 GI50: < 3.88
[37]
  -log10 GI50: 5.45
[38]
  -log10 GI50: 6.3
[39]
  -log10 GI50: 6.97
[40]
  -log10 GI50: 5.03
[41]
  -log10 GI50: 4.69
[42]
  -log10 GI50: 4.56
[43]
  -log10 GI50: 8.19
[45]
  -log10 GI50: 6.61
[46]
  -log10 GI50: 6.49
[47]
  -log10 GI50: 5.6
[48]
  -log10 GI50: 5.85
